Experimental data as given in patent publication US7452894B2, “Purine derivatives as purinergic receptor antagonists” (Vernalis Research Limited, priority 2001, dated 2008).
Like-named read-outs stand apart in the source and are kept apart here.

Legend:
[1] = biological target: human adenosine A2A receptors (Homo sapiens, UniProt P29274); assay: Binding affinities at hA2A receptors, displacement of [3H]-CGS 21680
adenosine A2A receptor = details: cited from earlier work
[2] = cited from earlier work
[3] = human adenosine A2A receptor, radioligand [3H]-CGS 21680

human adenosine A2A receptors, sequence (P29274 whole entry): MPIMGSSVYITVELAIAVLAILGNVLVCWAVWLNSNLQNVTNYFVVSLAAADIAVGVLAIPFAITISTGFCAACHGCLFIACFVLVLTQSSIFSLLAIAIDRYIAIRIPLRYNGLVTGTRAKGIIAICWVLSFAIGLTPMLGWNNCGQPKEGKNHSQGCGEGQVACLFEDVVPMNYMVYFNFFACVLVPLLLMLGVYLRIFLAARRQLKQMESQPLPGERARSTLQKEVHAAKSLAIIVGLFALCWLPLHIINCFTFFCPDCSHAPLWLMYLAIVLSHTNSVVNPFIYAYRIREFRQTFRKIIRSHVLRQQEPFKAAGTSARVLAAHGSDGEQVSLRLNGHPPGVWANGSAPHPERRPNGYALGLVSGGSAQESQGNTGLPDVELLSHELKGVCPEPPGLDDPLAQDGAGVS

Row | Ki [1] | SMILES | other results
1 | 24 nM | Nc1cccc(Cn2cnc3c(-c4ccco4)nc(N)nc32)c1 [Example 192, 9-(3-Aminobenzyl)-6-(2-furyl)-9H-purine-2-amine] | –
2 | 21 nM | Nc1nc(-c2ccco2)c2ncn(CCCc3cccnc3)c2n1 [Example 189, 6-(2-Furyl)-9-(3-(3-pyridyl)propyl)-9H-purine-2-amine] | –
3 | – | Cc1ccc(CNC(=O)n2cnc3c(-c4ccco4)nc(N)nc32)cc1 [Example 38, 2-Amino-6-(2-furyl)-N-(4-methylbenzyl)-9H-purine-9-carboxamide] | Ki [1, 3]: 1 nM
4 | 12 nM | CSc1nc(-c2ccco2)c2nc[nH]c2n1 [Example 13, 6-(2-Furyl)-2-methylthio-1H-purine] | melting point: 239.5 to 239.9 °C
5 | 7 nM | Cc1cccc(Cn2cnc3c(-c4ccco4)nc(N)nc32)c1 [Example 126, 6-(2-Furyl)-9-(3-methylbenzyl)-9H-purine-2-amine] | –
6 | 23 nM | CN(C)c1nc(-c2ccco2)c2nc[nH]c2n1 [Example 3, N,N-Dimethyl-6-(2-furyl)-1H-purine-2-amine] | –
7 | – | COc1nc(-c2ccco2)c2ncn(C(=O)NCc3ccccc3)c2n1 [Example 112, N-Benzyl-2-methoxy-6-(2-furyl)-9H-purine-9-carboxamide] | Ki [1, 3]: 8 nM
8 | – | Nc1nc(-c2ccco2)c2ncn(C(=O)NCc3ccc(F)cc3)c2n1 [Example 79, 2-Amino-N-(4-fluorobenzyl)-6-(2-furyl)-9H-purine-9-carboxamide] | Ki [1, 3]: 1 nM
9 | 12 nM | Nc1nc(-c2ccco2)c2ncn(C/C=C/c3ccccc3)c2n1 [Example 57, 6-(2-Furyl)-9-(1-phenyl-1-propene-3-yl)-9H-purine-2-amine] | –
10 | – | Nc1nc(-c2ccco2)c2ncn(C(=O)NCc3cccs3)c2n1 [Example 202, 2-Amino-6-(2-furyl)-N-(2-thienylmethyl)-9H-purine-9-carboxamide] | Ki [1, 3]: 1 nM
11 | – | CCCn1c(=O)c2c(nc(/C=C/c3ccc(OC)c(OC)c3)n2C)n(CCC)c1=O [KF 17837, (E)-8-(3,4-dimethoxystyryl)-1,3-dipropyl-7-methylxanthine] | anticataleptic effects of a subthreshold dose of L-DOPA plus benserazide (adenosine A2A receptor; in vivo): potentiated; catalepsy induced by haloperidol and reserpine (adenosine A2A receptor; in vivo): reduced; cataleptic responses induced by intracerebroventricular CGS 21680 (adenosine A2A receptor; oral administration): significantly ameliorated
12 | 7 nM | CCCCNC(=O)n1cnc2c(-c3ccco3)nc(N)nc21 [Example 36, 2-Amino-N-n-butyl-6-(2-furyl)-9H-purine-9-carboxamide] | –
13 | 4 nM | COc1ccc(CNC(=O)n2cnc3c(-c4ccco4)nc(N)nc32)cc1 [Example 37, 2-Amino-6-(2-furyl)-N-(4-methoxybenzyl)-9H-purine-9-carboxamide] | –
14 | – | Nc1nc(-c2ccco2)c2ncn(C(=O)NCc3ccco3)c2n1 [Example 201, 2-Amino-6-(2-furyl)-N-(2-furylmethyl)-9H-purine-9-carboxamide] | Ki [1, 3]: 2 nM
15 | 35 nM | Cc1cccc(Cn2cnc3c(-c4ccco4)nc(N)nc32)n1 [Example 212, 6-(2-Furyl)-9-(6-methyl-2-pyridyl)methyl-9H-purine-2-amine] | –
16 | – | Nc1nc(-c2ccco2)c2ncn(C(=O)NCc3ccccc3Cl)c2n1 [Example 39, 2-Amino-N-(2-chlorobenzyl)-6-(2-furyl)-9H-purine-9-carboxamide] | Ki [1, 3]: 1 nM
17 | 36 nM | Nc1nc(-c2ccco2)c2ncn(CC(=O)Nc3cccc(Cl)c3)c2n1 [Example 141, 2-Amino-N-(3-chlorophenyl)-6-(2-furyl)-9H-purine-9-acetamide] | melting point: 278 °C (dec.)
18 | – | Nc1nc(-c2ccco2)c2ncn(C(=O)NCc3ccccc3)c2n1 [Example 26, 2-Amino-N-benzyl-6-(2-furyl)-9H-purine-9-carboxamide] | Ki [1, 3]: 1 nM
19 | 7 nM | Cc1csc(-c2nc(N)nc3c2ncn3Cc2ccccc2F)n1 [Example 244, 9-(2-Fluorobenzyl)-6-(4-methyl-2-thiazolyl)-9H-purine-2-amine] | melting point: 259.2 °C

Row | Ki [1] | SMILES | other results
20 | – | C[C@H](NC(=O)n1cnc2c(-c3ccco3)nc(N)nc21)c1ccccc1 [Example 45, (1S)-2-Amino-6-(2-furyl)-N-(1-phenyethyl)-9H-purine-9-carboxamide] | Ki [1, 3]: 2 nM
21 | – | Nc1nc(-c2ccco2)c2ncn(C(=O)NCCc3ccccc3)c2n1 [Example 92, 2-Amino-6-(2-furyl)-N-(2-phenylethyl)-9H-purine-9-carboxamide] | Ki [1, 3]: 6 nM
22 | 4 nM | Nc1nc(-c2ccco2)c2ncn(Cc3ccccc3F)c2n1 [Example 157, 9-(2-Fluorobenzyl)-6-(2-furyl)-9H-purine-2-amine] | –
23 | 7 nM | Nc1nc(-c2ccco2)c2ncn(Cc3ccc(Cl)s3)c2n1 [Example 240, 9-(5-Chloro-2-thienylmethyl)-6-(2-furyl)-9H-purine-2-amine] | melting point: 210.9 to 211.5 °C
24 | 4 nM | Cn1cnc(S(=O)(=O)Nc2ccccc2Cn2cnc3c(-c4ccco4)nc(N)nc32)c1 [Example 235, 6-(2-Furyl)-9-(2-(1-methyl-1H-imidazol-4-ylsulphonylamino)benzyl)-9H-purine-2-amine] | melting point: 253.1 to 257.1 °C
25 | 1 nM | Nc1nc(-c2ccco2)c2ncn(C(=O)OCc3ccccc3)c2n1 [Example 106, Benzyl 2-amino-6-(2-furyl)-9H-purine-9-carboxylate] | melting point: 161.7 °C (dec.)
26 | 6 nM | Nc1nc(-c2ccco2)c2ncn(Cc3cccc(Cl)c3)c2n1 [Example 125, 9-(3-Chlorobenzyl)-6-(2-furyl)-9H-purine-2-amine] | –
27 | 4 nM | Nc1nc(-c2ccco2)c2ncn(C(=O)NCc3ccc(Cl)cc3Cl)c2n1 [Example 93, 2-Amino-N-(2,4-dichlorobenzyl)-6-(2-furyl)-9H-purine-9-carboxamide] | –
28 | 8 nM | Nc1nc(-c2ccco2)c2ncn(S(=O)(=O)c3ccc(Br)cc3)c2n1 [Example 162, 9-(4-Bromophenyl)sulphonyl-6-(2-furyl)-9H-purine-2-amine] | –
29 | 7 nM | Nc1nc(-c2ccco2)c2ncn(S(=O)(=O)/C=C/c3ccccc3)c2n1 [Example 185, 6-(2-Furyl)-9-(2-phenylethenyl)sulphonyl-9H-purine-2-amine] | –
30 | 11 nM | Nc1nc(-c2ccco2)c2ncn(Cc3cc([N+](=O)[O-])ccc3F)c2n1 [Example 259, 9-(2-Fluoro-5-nitrobenzyl)-6-(2-furyl)-9H-purine-2-amine] | –
31 | 9 nM | Cc1ccc(Cn2cnc3c(-c4ccco4)nc(N)nc32)cc1 [Example 127, 6-(2-Furyl)-9-(4-methylbenzyl)-9H-purine-2-amine] | –
32 | – | Cn1c(=O)c2[nH]cnc2n(C)c1=O [theophylline] | mean objective disability scores ([2]; 15 Parkinsonian patients, up to 12 weeks, 150 mg/day oral): significant improvements; serum theophylline levels ([2]; slow release oral preparation 150 mg/day, after one week, Parkinsonian patients): 4.44 mg/L
33 | 5 nM | CCCCCNC(=O)n1cnc2c(-c3ccco3)nc(N)nc21 [Example 52, 2-Amino-6-(2-furyl)-N-n-pentyl-9H-purine-9-carboxamide] | –
34 | – | Cc1cccc(CNC(=O)n2cnc3c(-c4ccco4)nc(N)nc32)c1 [Example 47, 2-Amino-6-(2-furyl)-N-(3-methylbenzyl)-9H-purine-9-carboxamide] | Ki [1, 3]: 1 nM
35 | 5 nM | Nc1nc(-c2ccco2)c2ncn(C(=O)NCc3ccc(Cl)c(Cl)c3)c2n1 [Example 80, 2-Amino-N-(3,4-dichlorobenzyl)-6-(2-furyl)-9H-purine-9-carboxamide] | –
36 | – | CCOC(=O)Cn1cnc2c(-c3ccco3)nc(N(C)C)nc21 [Example 71, Ethyl 2-dimethylamino-6-(2-furyl)-9H-purine-9-acetate] | melting point: 180.6 to 181.8 °C
37 | 6 nM | Cc1ccc(Cn2cnc3c(-c4ccc(C)o4)nc(N)nc32)cc1 [Example 208, 9-(4-Methylbenzyl)-6-(5-methyl-2-furyl)-9H-purine2-amine] | melting point: 210 to 220 °C (dec.)

Row | SMILES | Ki [1] | other results
38 | CN(Cc1ccccc1)C(=O)n1cnc2c(-c3ccco3)nc(N)nc21 [Example 118, 2-Amino-N-benzyl-6-(2-furyl)-N-methyl-9H-purine-9-carboxamide] | 3 nM | –
